Results as given in patent publication US20140227357A1, “FILL FORMULATIONS AND CAPSULES AND METHOD OF USE TO AVOID MIGRATION OF FILL INTO OR THROUGH THE SHELL” (CAPSUGEL BELGIUM NV, priority 2011, published 2014).

Assay: Technical batch stability study, 2-butanol and 2-pentanone assay by gas chromatography
Type: physicochemical
Details: in Formulation 4, sealed LICAPS

- assay, % label claim (6 months at 25° C./60% RH in PET/Alu/PE bags): 100.3%
- assay, % label claim (6 months at 40° C./75% RH in PET/Alu/PE bags): 99.8%
SMILES: CCCC(C)=O [Formulation 2-pentanone, 2-pentanone]
